In US7915297B2, “Isoxazole derivatives and use thereof” (SK Holdings Co., Ltd., priority 2005, dated 2011) one finds Emax and activity data, which are given here for 29 compounds.

Assay [1] has as its system Wnt/β-catenin signaling (β-catenin activity) in SW480 cell line. Put plainly: Cell-based Wnt agonist screening, TCF luciferase reporter, SW480 (TCF-FL). Set-up: species or system human. Conditions: Homo sapiens, % of LiCl (20 mM), 24 h, read-out: Max. Activity (%); for Emax at 30 µM: Con. 30 μM; for Emax at 1 µM: Con. 1 μM; for Emax at 120 µM: Con. 120 μM. An outline of the steps: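 HEK293 and SW480 lines stably carried a 5X TCF firefly luciferase reporter under G418 selection. Cells (8,000–15,000/well, RPMI 1640 with 5% FBS) were grown 24 h, then treated with compound for 24 h. Luciferase activity was expressed as percent of the 20 mM LiCl positive control.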

The subject of assay [2] is ST-2, a murine bone marrow stromal T cell. Kind of assay: Differentiation of ST2 cell line into osteoblasts, alkaline phosphatase activity. Type of assay: cell-based. The settings on record: Mus musculus, 96 h; ST-2 cells, 11 μM compound, 4 days; control treated only with ascorbic acid and β-glycerolphosphate = 100; read-out: ALP Activity (% Control). The method, then:
The derivatives synthesized according to the present invention were assayed for their ability to differentiate stem cells into osteoblasts. In this regard, ST-2, a murine bone marrow stromal T cell, was used to measure the activity of bone-specific alkaline phosphatase, a marker of early-stage osteoblast differentiation. In detail, the cell line was cultured in an MEM supplemented with penicillin-streptomycin (100 Units/mL) and heat-inactivated 5% fetal bovine serum under standard culture conditions (5% CO2, 37° C., 100% relative humidity). […] The suspension was diluted with the same medium to adjust the cell count to 5,000˜10,000 cells per well, and was moved in a 96-well microtiter, subsequently. After being incubated for 24 hrs, the cells were treated in a medium containing 50 μg/ml of ascorbic acid and 5 mM of β-glycerolphosphate with various concentrations of the isoxazole derivatives synthesized in Preparation Examples. During incubation for one to nine days, the Alkaline phosphatase activity was analyzed using a […] Assay kit (Promega, U.S.A.) according to the protocol described in the manual provided by the manufacturer. The activities were measured in cells which had been incubated at 11 μM of each of the compounds for 4 days. Data on the activities of the isoxazole derivatives synthesized are given in Tables 44 to 47 and are expressed as percentages of ALP relative to that measured in the control, which was treated only with ascorbic acid and β-glycerolphosphate. ALP activities according to the concentrations of Derivative (1) are depicted in FIG. 5.

In the case of `O=C(NCCN1CCN(c2ccc(Cl)cc2)CC1)c1cc(-c2ccco2)on1` [Derivative (184), 5-furan-2-yl-isoxazole-3-carboxylic acid {2-[4-(4-chlorophenyl)-piperazin-1-yl]-ethyl}-amide], the Emax at 30 µM in assay [1] worked out at 70%. The activity at 11 µM in assay [2] was 126%.

As for `CC(C)c1ccc(NCCNC(=O)c2cc(-c3ccco3)on2)cc1` [Derivative (199), 5-furan-2-yl-isoxazole-3-carboxylic acid [2-(4-isopropyl-phenylamino)-ethyl]-amide], in assay [1], the Emax at 30 µM stood at 45%. The activity at 11 µM in assay [2] stood at 63%.

For `O=C(NCCN1CCN(c2ncccn2)CC1)c1cc(-c2ccco2)on1` [Derivative (192), 5-furan-2-yl-isoxazole-3-carboxylic acid [2-(4-pyrimidin-2-yl-piperazin-1-yl)-ethyl]-amide], in assay [1], the Emax at 30 µM was 137%. Also, the activity at 11 µM in assay [2] was 398%.

For `O=C(NCCNC(=O)c1cc(-c2cccs2)on1)c1ccccc1` [Derivative (210), 5-thiophen-2-yl-isoxazole-3-carboxylic acid (2-benzoylamino-ethyl)-amide], the Emax at 1 µM in assay [1] amounted to 475%. For the same compound, the activity at 11 µM in assay [2] is 202%.

For `O=C(NCCn1cncn1)c1cc(-c2ccoc2)on1` [Derivative (154), 5-furan-3-yl-isoxazole-3-carboxylic acid (2-[1,2,4]-triazol-1-yl-ethyl)-amide], in assay [1], the Emax at 120 µM turned out to be 113%. Besides, the activity at 11 µM in assay [2] was determined as 310%.

Consider `O=C(NCCCn1ccnc1)c1cc(C2CCCCC2)on1` [Derivative (164), 5-cyclohexyl-3-isoxazole-3-carboxylic acid (3-imidazol-1-yl-propyl)-amide], for which, in assay [1], the Emax at 120 µM turned out to be 55%. Also, the activity at 11 µM in assay [2] was 241%.

As for `O=C(NCCn1cccn1)c1cc(-c2ccco2)on1` [Derivative (39), 5-furan-2-yl-isoxazole-3-carboxylic acid (2-pyrazol-1-yl-ethyl)-amide], the Emax at 30 µM in assay [1] worked out at 344%. The activity at 11 µM in assay [2] came to 190%.

With `O=C(NCCCn1cncn1)c1cc(-c2ccc[nH]2)on1` [Derivative (159), 5-(1H-pyrrol-2-yl)-isoxazole-3-carboxylic acid (3-[1,2,4]triazol-1-yl-propyl)-amide], in assay [1], the Emax at 30 µM is 128%. Moreover, the activity at 11 µM in assay [2] was 130%.

`CN(CCCNC(=O)c1cc(-c2ccco2)on1)c1ccccc1` [Derivative (203), 5-furan-2-yl-isoxazole-3-carboxylic acid [3-(methyl-phenyl-amino)-propyl]-amide]: the Emax at 30 µM in assay [1] is 851%. The activity at 11 µM in assay [2] is 260%.

`Cn1cccc1-c1cc(C(=O)NCCCn2cncn2)no1` [Derivative (150)]: the Emax at 30 µM in assay [1] amounted to 78%. For the same compound, in assay [2], the activity at 11 µM is 328%.

As for `O=C(CNC(=O)c1cc(-c2ccco2)on1)Nc1ccccc1` [Derivative (207), 5-furan-2-yl-isoxazole-3-carboxylic acid phenylcarbamoylmethyl-amide], the Emax at 120 µM in assay [1] is 34%. The activity at 11 µM in assay [2] worked out at 47%.

With `COc1ccccc1N1CCN(CCNC(=O)c2cc(-c3ccco3)on2)CC1` [Derivative (193), 5-furan-2-yl-isoxazole-3-carboxylic acid {2-[4-(2-methoxyphenyl)-piperazin-1-yl]-ethyl}-amide], the Emax at 30 µM in assay [1] was determined as 382%. Also, in assay [2], the activity at 11 µM was found to be 173%.

Take `O=C(CCNC(=O)c1cc(-c2cccs2)on1)c1ccccc1` [Derivative (206), 5-thiophen-2-yl-isoxazole-3-carboxylic acid (3-oxo-3-phenyl-propyl)-amide]: in assay [1], the Emax at 120 µM is 584%. Also, the activity at 11 µM in assay [2] was 772%.

For `O=C(NCCN1CCNCC1)c1cc(-c2ccco2)on1` [Derivative (176), 5-furan-2-yl-isoxazole-3-carboxylic acid (2-piperazin-1-yl-ethyl)-amide], in assay [1], the Emax at 30 µM turned out to be 93%. For the same compound, in assay [2], the activity at 11 µM came to 179%.

In the case of `COc1ccc(N2CCN(CCNC(=O)c3cc(-c4ccco4)on3)CC2)c(OC)c1` [Derivative (187), 5-furan-2-yl-isoxazole-3-carboxylic acid {2-[4-(2,4-dimethoxyphenyl)-piperazin-1-yl]-ethyl}-amide], in assay [1], the Emax at 120 µM turned out to be 179%. Further, in assay [2], the activity at 11 µM was 99%.

For `CC(C)(C)c1cc(C(=O)NCCCn2cncn2)no1` [Derivative (168), 5-tert-butyl-3-isoxazole-3-carboxylic acid (3-[1,2,4]-triazol-1-yl-propyl)-amide], the Emax at 10 µM in assay [1] (Con. 10 μM) was 40%. The activity at 11 µM in assay [2] is 97%.

With `O=C(NCCOc1ccccc1)c1cc(-c2cccs2)on1` [Derivative (215), 5-thiophen-2-yl-isoxazole-3-carboxylic acid (2-phenoxy-ethyl)-amide], in assay [1], the Emax at 30 µM came to 90%. Also, the activity at 11 µM in assay [2] was 162%.

Consider `O=C(NCCCn1ccnc1)c1cc(N2CCOCC2)on1` [Derivative (161), 5-morpholin-4-yl-isoxazole-3-carboxylic acid (3-imidazol-1-yl-propyl)-amide], for which the Emax at 120 µM in assay [1] amounted to 33%. Besides, the activity at 11 µM in assay [2] came out at 89%.

Turning to `COc1ccc(N2CCN(CCNC(=O)c3cc(-c4ccco4)on3)CC2)cc1` [Derivative (181), 5-furan-2-yl-isoxazole-3-carboxylic acid {2-[4-(4-methoxyphenyl)-piperazin-1-yl]-ethyl}-amide], the Emax at 1 µM in assay [1] is 73%. The activity at 11 µM in assay [2] turned out to be 681%.

Regarding `O=C(NCCCn1ccnc1)c1cc(-c2ccc[nH]2)on1` [Derivative (160), 5-(1H-pyrrol-2-yl)-isoxazole-3-carboxylic acid (3-imidazol-1-yl-propyl)-amide], the Emax at 120 µM in assay [1] was found to be 146%. Moreover, the activity at 11 µM in assay [2] is 158%.

As for `COc1ccc(N2CCN(CCNC(=O)c3cc(-c4ccco4)on3)CC2)cc1OC` [Derivative (186), 5-furan-2-yl-isoxazole-3-carboxylic acid {2-[4-(3,4-dimethoxyphenyl)-piperazin-1-yl]-ethyl}-amide], in assay [1], the Emax at 30 µM amounted to 553%. For the same compound, the activity at 11 µM in assay [2] amounted to 272%.

For the compound `O=C(NCCNc1ccccn1)c1cc(-c2ccco2)on1` [Derivative (204), 5-furan-2-yl-isoxazole-3-carboxylic acid [2-(pyridin-2-ylamino)-ethyl]-amide], the Emax at 120 µM in assay [1] turned out to be 369%. For the same compound, the activity at 11 µM in assay [2] came out at 150%.

Take `CC(=O)N1CCN(CCNC(=O)c2cc(-c3ccco3)on2)CC1` [Derivative (178), 5-furan-2-yl-isoxazole-3-carboxylic acid [2-(4-acetyl-piperazin-1-yl)-ethyl]-amide]: the Emax at 120 µM in assay [1] worked out at 301%. For the same compound, the activity at 11 µM in assay [2] was determined as 475%.

In the case of `O=C(CNC(=O)c1cc(-c2ccco2)on1)Nc1ccccn1` [Derivative (208), 5-furan-2-yl-isoxazole-3-carboxylic acid (pyridin-2-ylcarbamoylmethyl)-amide], the Emax at 30 µM in assay [1] was 110%. For the same compound, the activity at 11 µM in assay [2] was found to be 57%.

For `O=C(NCCn1cncn1)c1cc(-c2cc3ccccc3o2)on1` [Derivative (171), 5-benzofuran-2-yl-isoxazole-3-carboxylic acid (2-[1,2,4]triazol-1-yl-ethyl)-amide], the Emax at 120 µM in assay [1] came to 43%. Moreover, the activity at 11 µM in assay [2] was 74%.

For `Cc1ccc(N2CCN(CCNC(=O)c3cc(-c4ccco4)on3)CC2)cc1` [Derivative (183), 5-furan-2-yl-isoxazole-3-carboxylic acid {2-[4-(4-methylphenyl)-piperazin-1-yl]-ethyl}-amide], in assay [1], the Emax at 120 µM amounted to 114%. Also, the activity at 11 µM in assay [2] amounted to 127%.

Turning to `COc1cc(OC)cc(N2CCN(CCNC(=O)c3cc(-c4ccco4)on3)CC2)c1` [Derivative (188), 5-furan-2-yl-isoxazole-3-carboxylic acid {2-[4-(3,5-dimethoxyphenyl)-piperazin-1-yl]-ethyl}-amide], the Emax at 1 µM in assay [1] is 200%. Also, in assay [2], the activity at 11 µM was 151%.

In the case of `O=C(NCCCn1cncn1)c1cc(-c2cc3ccccc3o2)on1` [Derivative (170), 5-benzofuran-2-yl-isoxazole-3-carboxylic acid (3-[1,2,4]triazol-1-yl-propyl)-amide], the Emax at 30 µM in assay [1] stood at 46%. For the same compound, in assay [2], the activity at 11 µM came to 74%.

`O=C(NCCN1CCOCC1)c1cc(-c2ccco2)on1` [Derivative (175), 5-furan-2-yl-isoxazole-3-carboxylic acid (2-morpholin-4-yl-ethyl)-amide]: the Emax at 1 µM in assay [1] is 383%. In addition, the activity at 11 µM in assay [2] turned out to be 767%.
